Literature values, collected in patent US20180153800A1, “PERSONAL LUBRICANT PROVIDING SEQUENTIAL MULTISENSORIAL PERCEPTIONS AND ARTICLES INCORPORATING SUCH LUBRICANT” (Church & Dwight Co., Inc., priority 2016, published 2018).

Test system: human tissue

| Compound | time of onset of cooling sensation (after tissue contact) | sensation duration (cooling sensation) | cooling sensation relative to menthol (reference menthol) [times] |
| --- | --- | --- | --- |
| CC1CCC(C(C)C)C(OC(=O)CCC(=O)N(C)C)C1 (stereo not drawn) [2-isopropyl-5-methylcyclohexyl 4-(dimethylamino)-4-oxobutanoate] | about 25 seconds | about 11.25 minutes |  |
| CC1CCC(C(C)C)C(C(=O)Nc2ccc(CC#N)cc2)C1 (stereo not drawn) [N-(4-cyanomethylphenyl) p-menthanecarboxamide] |  |  | 10 |
